In publication PMC3039689, “Identification of Small Molecule Lead Compounds for Visceral Leishmaniasis Using a Novel Ex Vivo Splenic Explant Model System” (PLoS Neglected Tropical Diseases, 2011):
Read-outs that look alike come from different tables or passages of the source.

Assays:
[1] = test system: splenocytes
[2] = test system: luciferase-transfected Leishmania donovani; assay: Anti-leishmanial efficacy (EC50) in the ex vivo splenic explant model; type: cell-based; details: Leishmania donovani
[3] = Cell toxicity (CC50) in the HepG2 cell line, CellTiter-Glo; type: cell-based, human; details: human
Description: After 24 hours of culture at 37°C the number of viable cells was determined by quantification of the ATP present in the cell using the CellTiter-Glo luminescent Cell Viability Assay (Promega).

[4] = test system: Leishmania donovani; assay: Discrimination between amphotericin B treated and untreated splenic explant cultures at serial dilutions of cells; type: cell-based; details: AMB 0.126 µg/mL, 48 h; for Parasite counts, Treated (AMB): mean ± SD; for Reduction in parasite burden: with reference to controls
[5] = test system: LUC-transfected L. donovani; assay: Anti-leishmanial efficacy (EC50) in in vitro infected peritoneal macrophages; type: cell-based, Leishmania donovani; details: Leishmania donovani, Peritoneal macrophage; hamster peritoneal macrophages infected in vitro, 48 h, luminometry; purchased compounds; read-out: Peritoneal Macrophages EC50 (mean±SE)
Description: Macrophages from uninfected hamsters were obtained by peritoneal lavage with DMEM (Gibco) and Heparin (2 units/ml; Elkins-Sinn, Cherry Hill NJ). The cells were washed twice by centrifugation and re-suspended in culture medium composed of DMEM, 5% FBS, 1 mM sodium pyruvate (Gibco), 1X MEM amino acids solution (Sigma), 0.02% v/v/EDTA and 10 mM HEPES buffer (Cellgro). The peritoneal macrophages were adjusted to 5×10^5 cells/ml and allowed to adhere overnight at 37°C and 5% CO2 in flat bottom 96-well plates. Adherent macrophages were infected at 1∶5 ratio (cells:parasites) with stationary phase LUC-transfected L. donovani promastigotes and cultured at 37°C, 5% CO2, for 2 h. The extracellular parasites were then removed by washing with warm Dulbeco's PBS (Gibco). Infected macrophages were exposed to 2-fold serial dilutions of test compounds as described above for the ex vivo culture system. The infected macrophages were incubated for 48 hr in 5% CO2 atmosphere at 37°C. The number of surviving parasites was determined by luminometry and the effective concentration (EC50) calculated by linear regression (GraphPad Prism 5.0) as described above for the ex vivo system. The mean and standard error of the EC50 from 3 different experiments were considered as the final EC50. […] Tilorone was obtained from Hangzhou Trylead Chemical Tech (China). All compounds were dissolved in sterile dimethyl sulfoxide (analytical grade, cell culture tested; Sigma) and stored frozen at −20°C until used.

[6] = test system: splenocytes; assay: Flow cytometry of propidium iodide stained splenocytes cultured with test compound; details: 48 hr culture period, data not shown
[7] = 48 h, 48 h of culture, luminometry, purchased compounds dissolved in DMSO, read-out: Ex vivo model EC50 (mean±SE)

C[C@@H]1[C@H](O)[C@@H](C)/C=C/C=C/C=C/C=C/C=C/C=C/C=C/[C@H](O[C@@H]2O[C@H](C)[C@@H](O)[C@H](N)[C@@H]2O)C[C@@H]2O[C@](O)(C[C@@H](O)C[C@@H](O)[C@H](O)CC[C@@H](O)C[C@@H](O)CC(=O)O[C@H]1C)C[C@H](O)[C@H]2C(=O)O [Amphotericin B]
Splenocyte viability [1]: no loss of splenocyte viability
EC50 [2, 7]: 0.09 ± 0.03 µM
EC50 ([2]; ex vivo model, amphotericin B present in the library (in DMSO vehicle), read-out: EC50): 10.7 ± 0.9 µM
CC50 at 24 h [3]: 104 µM
Parasite counts, Treated (AMB) ([4]; 3,125 cells per well): 0.1±0.1 photons/sec
Reduction in parasite burden ([4]; 3,125 cells per well): 83.5%
Parasite counts, Treated (AMB) ([4]; 6,250 cells per well): 0.2±0.0 photons/sec
Reduction in parasite burden ([4]; 6,250 cells per well): 86.3%
Parasite counts, Treated (AMB) ([4]; 12,500 cells per well): 0.4±0.3 photons/sec
Reduction in parasite burden ([4]; 12,500 cells per well): 86.2%
Parasite counts, Treated (AMB) ([4]; 25,000 cells per well): 0.7±0.0 photons/sec
Reduction in parasite burden ([4]; 25,000 cells per well): 86.4%
Parasite counts, Treated (AMB) ([4]; 50,000 cells per well): 2.5±0.5 photons/sec
Reduction in parasite burden ([4]; 50,000 cells per well): 82.3%
Parasite counts, Treated (AMB) ([4]; 100,000 cells per well): 8.5±0.2 photons/sec
Reduction in parasite burden ([4]; 100,000 cells per well): 83.3%
Parasite counts, Treated (AMB) ([4]; 200,000 cells per well): 34.8±3.7 photons/sec
Reduction in parasite burden ([4]; 200,000 cells per well): 76.0%
EC50 [5]: 0.11 ± 0.01 µM

CCN(CC)CCOc1ccc2c(c1)C(=O)c1cc(OCCN(CC)CC)ccc1-2 [Tilorone]
EC50 [2, 7]: 0.84 ± 0.47 µM
EC50 ([2]; 48 h, ex vivo splenic explant, 48 h, luminometry, at least two experiments, compound from screened library, read-out: Ex vivo model EC50 Mean): 7.7 µM
Splenocyte viability [6]: no loss of splenocyte viability
CC50 at 24 h ([3]; HepG2 cells, HepG2 cell line, 24 h, ATP luminescence, compound from screened library, read-out: HepG2 CC50 Mean): 46.8 µM
EC50 [5]: 1.48 ± 0.35 µM
